Data taken from patent publication US20230287068A1, “KERATIN BD-6, PREPARATION METHOD THEREFOR AND PHARMACEUTICAL COMPOSITION AND USE THEREOF” (INSTITUTE OF MATERIAL MEDICA, CHINESE ACADEMY OF MEDICAL …, priority 2019, published 2023).
Structures can show the parent of a compound that is named as a salt. Marks after values point to notes of the source that are not given here.

Assays:
[1] = tested on: mice cough induced by ammonia water; experiment: Antitussive test, cough induced by ammonia water in mice; format: in vivo, ICR mice
Protocol: • Animals: male ICR mice; • Drugs and reagents: dextromethorphan hydrobromide, ammonia water, 0.2% CMC-Na, protein BD-6; • Apparatus: Compressed nebulizer (403T type), balance (XS105DU type). • Experiment grouping: • Solvent control group; • Dextromethorphan 15 mg/kg group; • Protein BD-6, 20 mg/kg group, 50 mg/kg group.
Dextromethorphan and different doses of protein BD-6 (administration volume 10 ml/kg) were given orally in groups, and the solvent control group was given the same volume of distilled water. One hour later, mice were put into a sealed box and atomized 10% ammonia water for 10 seconds, and then observed and recorded the incubation period of cough in mice and the number of coughs in 2 minutes.
Record the time point of oral administration, the time point of atomization experiment, the incubation period of mice cough and the number of coughs within 2 minutes, respectively. The incubation period of cough refers to the number of seconds from the start of the atomization of ammonia to the occurrence of cough. The performance of coughing in mice is based on contraction of their abdominal muscles (breast contraction) and opening their mouths at the same time. Calculate the mean and standard error of each group of data, and use TTEST to compare the model group with other groups, and P<0.05 is considered as a significant difference.

[2] = tested on: PLO-induced epilepsy in mice; experiment: Pilocarpine (PLO) induced convulsive epilepsy in mice; format: in vivo, ICR mice; set-up: mortality rate: unit not given here; conditions: Diazepam 2 mg/kg, PLO 225 mg/kg i.p.
Protocol: • Animals: male ICR mice; • Drugs: Pilocarpine HCl (PLO, pilocarpine, pilocarpine hydrochloride), Diazepam (diazepam tablets), protein BD-6. • Experiment grouping: • Model group: • Diazepam 2 mg/kg group; • Protein BD-6, 50 mg/kg group, 200 mg/kg group.
The drug was administered once in the afternoon the day before modeling, PLO-225 mg/kg (modeling agent) was injected intraperitoneally 1 hour after the test drug was administered intragastrically on the day of modeling. And positive drug can be administered once 20 minutes before modeling. Observe for 30 minutes after PLO injection.
Observation indicators: ①Seizure situation: the time of seizures from Grade II to Grade IV; ②the time to death.
(§1) Seizure grade: Refer to Racine grading standard: Grade 0: No response; Grade I: manifested as twitching of facial muscles or the corners of the mouth; Grade II: can nod; Grade III: twitching of one limb; Grade IV: rigidity or body twitching; Grade V: generalized epilepsy (generalized tonic seizures).
Count the number of Grade IV seizures and deaths in each group of mice in the experiment; Grade II, III and IV incubation period. […] Chi-square test was used for statistics of the number of cases. The mean value and standard error of the incubation period were calculated, and TTEST was used to compare the model group with other groups. P<0.05 was considered as a significant difference.

[3] = tested on: PTZ-induced epilepsy in mice; experiment: Pentylenetetrazole (PTZ) induced epilepsy in mice; format: in vivo, ICR mice; conditions: Retigabine 60 mg/kg, PTZ 65 mg/kg i.p.
Protocol: • Animals: male ICR mice; • Medicines: Pentylenetetrazol (PTZ), Retigabine, Protein BD-6. • Experiment grouping: • Model group; • Retigabine 60 mg/kg group; • Protein BD-6, 50 mg/kg group, 200 mg/kg group;
The drug was administered once in the afternoon the day before modeling, On the day of modeling, PTZ-65 mg/kg (modeling agent) was injected intraperitoneal 1 hour after the test drug was administered intragastrically, and the positive drug can be administered once half an hour before modeling. Continue to observe for 15 minutes after injection of PTZ.
Observation index: ①Seizure situation: the time of seizures from Grade III to Grade VI; ②Death situation
as §1
Count the cases of seizures and deaths in each group of mice in the experiment; Grade III and IV incubation period. The incubation period of mice that have not attacked to Grade IV is recorded as the maximum of 900 seconds. Chi-square test was used for statistics of the number of cases. Calculate the mean and standard error of the incubation period. Use TTEST to compare the model group with other groups, and P<0.05 is considered as a significant difference.

[4] = tested on: lipopolysaccharide (LPS) induced fever model in rats; experiment: Lipopolysaccharide (LPS) induced fever model in SD rats; format: in vivo
Protocol: • Animals: 230-260 grams of male SD rats; • Drugs: lipopolysaccharide (LPS, SIGMAL-2880), aspirin (SIGMAA2093), protein BD-6; • Instruments: electronic balance (SARTORIUS BP121S type), electronic clinical thermometer (CITIZEN CT-513W type). • Experiment grouping: • Normal control group; • Model group: lipopolysaccharide fever model; • Positive control group: Aspirin 300 mg/kg group; • Protein BD-6, 10 mg/kg group, 50 mg/kg group.
Method: the method of intraperitoneal injection of Lipopolysaccharide to replicate rat fever model.
(§2) Preparation of experimental animals: After the experimental animals adapt to the experimental environment (temperature 22° C.±2° C., relative humidity 50%±2%) for 1 day. Pre-adaptation to measure rectal temperature at 8:00 and 15:00, rats were fasted and water was taken freely 12 h before experiment, and let the animal to empty its feces before measuring the rectal temperature. Apply petroleum jelly to the electronic thermometer probe before each temperature measurement. Insert the rat rectum 2 cm (can be marked at 2 cm to ensure that the depth of each insertion is consistent), and record the body temperature after the reading is stable.
Intraperitoneal injection of lipopolysaccharide to replicate rat fever model: The body temperature of the rats was measured before modeling. Qualified rats with a body temperature of 36.2-37.3° C. were selected and randomly divided into groups with 8 rats in each group. After oral administration of aspirin and different doses of protein BD-6, lipopolysaccharide (20 µg/kg, 2 ml/kg) was injected intraperitoneally immediately, and the normal control group was injected intraperitoneally with an equal volume of normal saline. The body temperatures of the rats were monitored after 2 hours for a total of 8 hours.
(§3) According to the body temperature measured at each time point on the day of the experiment, calculate the mean, standard deviation and standard error of the body temperature of each group of rats. The data of each group was compared with TTEST, and P<0.05 was considered as a significant difference.

[5] = tested on: yeast-induced fever model in rats; experiment: Yeast-induced fever model in SD rats; format: in vivo
Protocol: • Medicines: yeast (OXOID LP0021), aspirin (SIGMA A2093), protein BD-6; • Instruments: electronic balance (SARTORIUS BP121S type), electronic clinical thermometer (CITIZEN CT-513W type). • Experiment grouping: • Normal control group; • Model group: yeast fever model; • Positive control group: Aspirin 300 mg/kg group; • Protein BD-6, 10 mg/kg group, 50 mg/kg group.
as §2
Subcutaneous injection of dry yeast to replicate rat fever model: The body temperature of the rats was measured before modeling. Qualified rats with a body temperature of 36.2-37.3° C. were selected and randomly divided into groups with 8 rats in each group. After oral administration of aspirin and different doses of protein BD-6, 20% yeast suspension (10 ml/kg) was injected subcutaneously immediately, and the normal control group was injected intraperitoneally with an equal volume of normal saline. The body temperatures of the rats were monitored after 2 hours for a total of 8 hours.
as §3

[6] = tested on: acetic acid writhing of ICR mice; experiment: Acetic acid writhing test in ICR mice; format: in vivo
Protocol: • Animals: male ICR mice; • Drugs and reagents: aspirin, physiological saline, glacial acetic acid, protein BD-6. • Experiment grouping: • Model group; • Aspirin 300 mg/kg group; • Protein BD-6, 50 mg/kg group, 200 mg/kg group.
One day after the experimental animals adapt to the environment, Aspirin 300 mg/kg, protein BD-6 50 mg/kg, 200 mg/kg were given orally one hour in advance, and the administration volume was 10 ml/kg; Then, 0.6% acetic acid solution was injected intraperitoneally, and the incubation period (seconds) and frequency of writhing in the animal was observed within 15 minutes.
Calculate the mean and standard error of the data in each group. Compared with the model group by TTEST, P<0.05 was considered as statistically different.

[7] = aspirin 300 mg/kg oral, LPS 20 µg/kg i.p., SD rats
[8] = aspirin 300 mg/kg oral, 20% yeast s.c., SD rats
[9] = aspirin 300 mg/kg oral, 0.6% acetic acid i.p., within 15 minutes

For COc1ccc2c(c1)[C@]13CCCC[C@@H]1[C@H](C2)N(C)CC3 [Dextromethorphan, dextromethorphan hydrobromide, reference compound], the “Incubation period (cough)” value ([1]; Dextromethorphan 15 mg/kg oral, 10% ammonia water 10 seconds, X±SEM) was 37.3 ± 2.4 s, the Number of coughs ([1]; Dextromethorphan 15 mg/kg oral, within 2 minutes, X±SEM) was 30.2±2.0^∗∗ and the “Incubation period and number of coughs vs solvent control (in words)” value ([1]; dextromethorphan 15 mg/kg, P<0.05) was “significant improvement in the incubation period and the number of coughs”.
With CN1C(=O)CN=C(c2ccccc2)c2cc(Cl)ccc21 [Diazepam, reference compound] the Cases of deaths ([2]; 10 mice) was 0, the “Grade IV seizure rate” value ([2]; 10 mice) was 0** % and the mortality rate ([2]; 10 mice) was 0. The “Cases of Grade IV” value ([2]; 10 mice, 30 min observation) was 0**, the “Grade II seizure incubation period” value ([2]; mean±SEM) was 151±6^∗∗ s and the “Grade III seizure incubation period” value ([2]; mean±SEM) was 275±20^∗∗ s. The “Grade IV seizure incubation period” value ([2]; mean±SEM, maximum 1800 seconds) was 1800±0^∗∗ s.
CCOC(=O)Nc1ccc(NCc2ccc(F)cc2)cc1N [Retigabine, reference compound] was tested, and the Cases of deaths ([3]; 10 mice) was 0, the “Grade IV seizure rate” value ([3]; 10 mice) was 40%* and the mortality rate ([3]; 10 mice) was 0%. For the same compound, the “Cases of Grade IV” value ([3]; 10 mice, 15 min observation) was 4*, the “Grade III seizure incubation period” value ([3]; mean±SEM) was 104±13^∗∗ s and the “Grade IV seizure incubation period” value ([3]; mean±SEM, maximum 900 seconds) was 634±109^∗∗ s.
With CC(=O)Oc1ccccc1C(=O)O [aspirin, reference compound] the “Body temperature 2 hours after modeling” value [4, 7] was 36.7±0.1 °C, the “Body temperature 4 hours after modeling” value [4, 7] was 36.7±0.1 °C and the “Body temperature 6 hours after modeling” value [4, 7] was 36.6±0.1 °C. The “Body temperature 8 hours after modeling” value [4, 7] was 36.6±0.1 °C, the “Effect on increase in body temperature (in words)” value ([4]; aspirin 300 mg/kg, 2, 4, 6 and 8 hours after modeling, P<0.05 vs model group) was “can effectively inhibit the increase in body temperature of model rats” and the “Body temperature 2 hours after modeling” value [5, 8] was 37.1±0.1 °C. For the same compound, the “Body temperature 4 hours after modeling” value [5, 8] was 37.0±0.1 °C, the “Body temperature 6 hours after modeling” value [5, 8] was 37.1±0.1 °C and the “Body temperature 8 hours after modeling” value [5, 8] was 37.1±0.1 °C. For the same compound, the “Effect on increase in body temperature (in words)” value ([5]; aspirin 300 mg/kg, 4, 6 and 8 hours after modeling, P<0.05 vs model group) was “can effectively inhibit the increase in body temperature of model rats”, the “Writhing incubation period and times of writhing vs model group (in words)” value ([6]; Aspirin 300 mg/kg, P<0.05) was “can significantly delay the incubation period of writhing and reduce the times of writhing” and the Frequency of writhing [6, 9] was 14.8±3.3^∗∗ times. The Writhing incubation period [6, 9] was 281.6±26.0^∗∗ seconds.
